Reference: ChEMBL document CHEMBL1201862, “PubChem BioAssay data set” (2004)
Calls of active or inactive are those of the source. Cut-off read from the data, not from the text of the source, for most assays here: actives have a measured AC50 and inactives only a lower limit.

How the values were obtained:
[1] = P. falciparum Dd2 growth inhibitors, dose response, SYBR Green, dry powder samples, set 4 (AID 1159572); assay type: functional, cell-based
[2] = MALME3 melanoma cell viability reduction, dose response, orthogonal assay for MITF inhibitor project, CellTiter-Glo luminescence, dry powder, set 5 (AID 651584); assay type: functional, cell-based; settings: MALME-3
[3] = MITF Orthogonal Assay: SK-MEL-5 CTG Assay Measured in Cell-Based System Using Plate Reader - 2084-02_Inhibitor_Dose_DryPowder_Activity_Set7.; assay type: functional
[4] = MITF Orthogonal Assay: MALME3 CTG Assay Measured in Cell-Based System Using Plate Reader - 2084-04_Inhibitor_Dose_DryPowder_Activity_Set6.; assay type: functional; settings: MALME-3
[5] = MITF: Counter assay: A375 proliferation Measured in Cell-Based System Using Plate Reader - 2084-03_Inhibitor_Dose_DryPowder_Activity_Set8.; assay type: functional; settings: A-375
[6] = TRPM1 promoter luciferase reporter signal decrease, dose response, MITF inhibitor project, cell-based, SK-MEL-5, dry powder, set 9 (AID 651588); assay type: functional
[7] = SK-MEL-5 parental cell viability reduction, dose response, orthogonal assay for MITF inhibitor project, CellTiter-Glo luminescence, dry powder, set 8 (AID 651586); assay type: functional, cell-based
[8] = A375 melanoma cell viability loss, dose response, counter-screen for MITF modulator project, CellTiter-Glo luminescence, dry powder, set 9 (AID 651591); assay type: functional, cell-based; settings: A-375
[9] = TRPM1 promoter luciferase reporter signal decrease, dose response, MITF inhibitor project, cell-based, SK-MEL-5, dry powder, set 8 (AID 624430); assay type: functional
[10] = cytotoxicity in COV434 cells, dose response, cytotoxicity control for PAX8 inhibitor project, cell-based, plate reader, dry powder, SA7 (AID 743145); assay type: functional
[11] = PAX2 cell-based inhibition, dose response, selectivity assay for PAX8 inhibitor project, plate reader, dry powder samples (AID 743048); assay type: functional;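 note: HEK293 cells carrying a WT1 promoter luciferase reporter driven by expressed Pax2; potency is for inhibition of Pax2 driven reporter signal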
[12] = cytotoxicity in OV-90 ovarian cancer cells, dose response, PAX8 inhibitor project, cell-based, plate reader, dry powder, SA8 (AID 743149); assay type: functional
[13] = cytotoxicity dependent on PAX8, dose response, cell-based, plate reader, dry powder (AID 743049); assay type: functional
[14] = PAX5 activity inhibitors, dose response, selectivity assay for PAX8 inhibitor project, cell-based, plate reader, dry powder samples (AID 743047); assay type: functional;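 note: HEK293 cells carrying a Pax5 driven CD19 promoter luciferase reporter; potency of inhibitors that lower reporter luminescence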

Measured: AC50

COc1ccc2c3c([nH]c2c1)[C@H](CO)N(C(C)=O)CC31CCN(C(=O)c2ccc3c(c2)OCO3)CC1
active: [1] 6.93 µM

CN1CCN(C2=C(Nc3ccc(F)cc3F)C(=O)c3ccccc3C2=O)CC1
inactive: [5] > 70 µM | [7] > 70 µM | [8] > 70 µM
active: [2] 25.4 µM | [3] 9.87 µM | [4] 25.4 µM | [6] 17.5 µM | [9] 5.36 µM

COc1cccc(C#Cc2ccc([C@@H]3[C@@H](C#N)N(C(=O)C4CCCCC4)[C@@H]3CO)cc2)c1
active: [10] 69.6 µM | [11] 19.9 µM | [12] 57.3 µM | [13] 25.8 µM | [14] 30.5 µM
